Results reported in patent US20060052311A1, “Peptide inhibitors of smac protein binding to inhibitor of apoptosis proteins (IAP)” (priority 2002, published 2006).

System: GST-BIR3 fusion protein
Test: FMAT solution phase assay: competition of GST-BIR3 off beads carrying biotinylated Smac 7-mer peptide
Type: binding
Details: competing GST-BIR3 off beads with immobilized biotinylated Smac 7-mer peptide (AVPIAQK)
Experimental: In order to measure the ability of the inventive compounds to bind the BIR3 peptide binding pocket, a solution phase assay on the FMAT technology platform is utilized. Biotinylated Smac 7-mer peptide (AVPIAQK, lysine ε-amino group is biotinylated) is immobilized on streptavidin coated beads. GST-BIR3 fusion protein is precipitated with FMAT beads and is detected using fluorescent tagged anti-GST antibodies. […] The IC50 for non-biotinylated Smac is 400 nM.

Substance: non-biotinylated Smac: Non-biotinylated Smac peptide; the biotinylated bead-bound form is the Smac 7-mer AVPIAQK
- IC50: 400 nM
